Measurements taken from patent US7323433B2, “R-(-)-1-[2-(7-chlorobenzo[b]thiopen-3-yl-methoxy)-2-(2,4-dichlorophenyl)-ethyl]-1H-imidazole” (Ferrer Internacional, S.A., priority 2002, dated 2008).
In brackets after ≈: the same amount, converted by molar mass. Where two headings read alike, the source gives them in different places.

Legend:
Format in all cases: cell-based
Candida spp = experiment: MIC by modified NCCLS M27-A microdilution, Candida spp; settings: 42 strains, geometric mean, MIC = lowest concentration giving 50% inhibition of growth
Description: (§1) Minimal Inhibitory Concentrations (MICs) were determined by using a modification of the microdilution method M27-A recommended by the National Committee for Clinical Laboratory Standards in RPMI-1640 medium (Sigma) supplemented with glucose to a concentration of 2% and adjusted to pH 7.0 with 0.165 M morpholine propanesulfonic (MOPS) acid buffer. Serial twofold dilutions were made in modified RPMI-1640 medium from stock solutions. MICs were defined as the lowest drug concentrations resulting in 50% inhibition of growth compared to that of the growth control. […] The number of strains used in the experiments is given in parenthesis below the name of each microorganism.

Filamentous fungi = experiment: MIC by modified NCCLS M27-A microdilution, Filamentous fungi; settings: 11 strains, geometric mean, MIC = lowest concentration giving 50% inhibition of growth
Description: as §1

Dermatophytes = experiment: MIC by modified NCCLS M27-A microdilution, Dermatophytes; settings: 17 strains, geometric mean, MIC = lowest concentration giving 50% inhibition of growth
Description: as §1

Malassezia spp = experiment: MIC by modified NCCLS M27-A microdilution, Malassezia spp; settings: 11 strains, geometric mean, MIC = lowest concentration giving 50% inhibition of growth
Description: as §1

fungi and yeasts = experiment: Microbiological activity (MIC) overall, comparison of enantiomers and racemate
Description: as §1

[1] = RPMI-1640 2% glucose pH 7.0, read-out: MIC

Row | Compound | MIC (Candida spp; [1]) | MIC (Filamentous fungi; [1]) | MIC (Dermatophytes; [1]) | MIC (Malassezia spp; [1]) | MIC (Candida spp; RPMI-1640 2% glucose pH 7.0) | MIC (Filamentous fungi; RPMI-1640 2% glucose pH 7.0) | MIC (Dermatophytes; RPMI-1640 2% glucose pH 7.0) | microbiological activity in comparison with R-(−)sertaconazole (fungi and yeasts; in words, from Table 1) | MIC (Malassezia spp; RPMI-1640 2% glucose pH 7.0) | activity compared with the racemic mixture (fungi and yeasts; against both fungi and yeasts, as shown in Table 1)
1 | Clc1ccc(C(Cn2ccnc2)OCc2csc3c(Cl)cccc23)c(Cl)c1 (racemic) [Racemate, 1-[2-(7-chlorobenzo[b]thiophen-3-yl-methoxy)-2-(2,4-dichlorophenyl)-ethyl]-1H-imidazole] | 0.256 µg/mL (≈ 0.585 µM) | 3.11 µg/mL (≈ 7.1 µM) | 0.08 µg/mL (≈ 0.183 µM) | 1.37 µg/mL (≈ 3.13 µM) |  |  |  |  |  | 
2 | Clc1ccc([C@@H](Cn2ccnc2)OCc2csc3c(Cl)cccc23)c(Cl)c1.O=[N+]([O-])O (single isomer, unassigned) [S-(+)enantiomer] |  |  |  |  | 3.217 µg/mL | 16 µg/mL | 0.17 µg/mL | much less active | 10.96 µg/mL | 
3 | Clc1ccc([C@H](Cn2ccnc2)OCc2csc3c(Cl)cccc23)c(Cl)c1.O=[N+]([O-])O [R-(−)enantiomer, (R)-(−)-1-[2-(7-chlorobenzo[b]thiophen-3-yl-methoxy)-2-(2,4-dichlorophenyl)-ethyl]-1H-imidazole mononitrate] | 0.125 µg/mL | 1.76 µg/mL | 0.04 µg/mL | 0.64 µg/mL |  |  |  |  |  | about 2 times
